Test systems include A498 renal; HOP-18 NSCLC; K-562 leukemia; KM20L2 colon; LOX IMVI melanoma; OVCAR-4 ovarian; SK-MEL-28 melanoma; SW-620 colon; DU-145 prostate; HS 578T breast.
Assay in all cases: NCI tumour cell line growth inhibition, 48 h

Values joined by “and” are separate entries in the source; they are usually repeats but may differ in a detail not shown here. Equal entries are not always repeated.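 In this assay, cells in 96-well plates receive the compound at five concentrations for 48 hours. Endpoints are linearly interpolated between the surrounding concentrations. GI50: concentration for 50% inhibition of growth. Definition used: TGI = concentration required for complete inhibition of growth.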 Bounds are passed on as bounds.

For `COC(=O)N/N=C(\C)c1sc(-c2nc(C)c(/C(C)=N/NC(=O)OC)s2)nc1C`, the TGI with A498 renal, with HOP-18 NSCLC, with K-562 leukemia, with KM20L2 colon, with LOX IMVI melanoma and in the assay with OVCAR-4 ovarian was > 100 µM each time. Moreover, the TGI in the assay on SK-MEL-28 melanoma is > 100 µM.

With `O=[N+]([O-])c1ccc(/C=C/c2ccc(/C=C/c3ccc([N+](=O)[O-])cc3[N+](=O)[O-])cc2)c([N+](=O)[O-])c1`, the TGI with A498 renal, with K-562 leukemia, in the assay on KM20L2 colon, with OVCAR-4 ovarian, in the assay on SK-MEL-28 melanoma and in the assay on SW-620 colon was > 100 µM each time.

As for `C=C(C)c1nc(Oc2ccccc2)nc(Oc2ccccc2)n1`, the TGI in the assay with A498 renal amounted to 31.1 µM; in the assay on DU-145 prostate, 30.4 µM; in the assay with HOP-18 NSCLC it was 30.2 µM; with HS 578T breast, 44.1 µM; with K-562 leukemia, 5.49 µM; with KM20L2 colon, 26.7 µM. In addition, the TGI stood at 4.51 µM with LOX IMVI melanoma, 31.7 µM in the assay on OVCAR-4 ovarian, 15.3 µM in the assay with SK-MEL-28 melanoma and 15.7 µM in the assay on SW-620 colon.

In the case of `CN(C)c1ccc(/C=C2\CCc3ccccc3C2=O)cc1Br`, the TGI with HOP-18 NSCLC, in the assay on K-562 leukemia, in the assay with KM20L2 colon, in the assay with LOX IMVI melanoma, in the assay with OVCAR-4 ovarian and in the assay with SK-MEL-28 melanoma was > 100 µM each time. Besides, the TGI with SW-620 colon was > 100 µM.

`CNS(=O)(=O)NNS(=O)(=O)c1ccc(C)cc1`: the TGI with A498 renal, in the assay on K-562 leukemia, in the assay with KM20L2 colon, with OVCAR-4 ovarian, in the assay on SK-MEL-28 melanoma and with SW-620 colon was > 100 µM in each case.

Consider `O=C1NC(=O)C2C3C=CC(C12)C1C2C(=O)NC(=O)C2C31` (stereo not drawn), for which the GI50 is 467 µM in the assay with A498 renal; > 619 µM in the assay on DU-145 prostate; > 63.3 µM in the assay on HOP-18 NSCLC; 419 µM in the assay on HS 578T breast; 137 µM with K-562 leukemia; > 1000 µM in the assay with OVCAR-4 ovarian. Also, the GI50 in the assay on SK-MEL-28 melanoma was 938 µM. Further, the TGI is 250 µM and > 1000 µM with A498 renal; > 1000 µM in the assay on DU-145 prostate; 98.8 µM and 250 µM in the assay on HOP-18 NSCLC; 250 µM and > 562 µM in the assay with HS 578T breast; 250 µM and > 1000 µM in the assay on K-562 leukemia; 250 µM with KM20L2 colon. Also, the TGI was > 85.7 µM and 250 µM and > 1000 µM with LOX IMVI melanoma; 250 µM and > 1000 µM with OVCAR-4 ovarian; 244 µM and > 1000 µM in the assay on SK-MEL-28 melanoma; > 67.4 µM and 203 µM and > 1000 µM with SW-620 colon.

Turning to `Nc1ccccc1C(=O)/C=C/c1ccccc1O`, the TGI in the assay on A498 renal is > 100 µM; in the assay on HOP-18 NSCLC, > 100 µM; in the assay on K-562 leukemia, 93.4 µM; in the assay with KM20L2 colon, > 100 µM; with LOX IMVI melanoma, > 100 µM; in the assay with OVCAR-4 ovarian, > 100 µM. Moreover, the TGI with SK-MEL-28 melanoma and with SW-620 colon was > 100 µM throughout.

Regarding `CN(C)CCNC(=O)c1cccc2c1nc(-c1cccnc1)c1ccccc12`, the TGI with A498 renal is 15.7 µM; with HOP-18 NSCLC, 64 µM; in the assay with K-562 leukemia it was 65.4 µM; in the assay with LOX IMVI melanoma it was 12.6 µM; with OVCAR-4 ovarian, 18.4 µM; with SK-MEL-28 melanoma, 23.6 µM. This molecule had a TGI in the assay on SW-620 colon of 25.3 µM.

Take `CC1(C)CC(=O)C(C(=O)Nc2cccs2)=C(O)C1`: the TGI with A498 renal was 88.9 µM; in the assay with HOP-18 NSCLC it was > 100 µM; in the assay with K-562 leukemia it was > 100 µM; with KM20L2 colon, > 100 µM; in the assay with LOX IMVI melanoma, > 100 µM; in the assay on OVCAR-4 ovarian it was > 100 µM. Moreover, the TGI in the assay with SK-MEL-28 melanoma and with SW-620 colon was > 100 µM throughout.

Turning to `CCC12C=C(C(=O)OC)N3c4ccccc4C4CCN(CCC1)C2C43` (stereo not drawn), the TGI in the assay with A498 renal is > 100 µM; with HOP-18 NSCLC, > 100 µM; in the assay on K-562 leukemia, > 100 µM; with KM20L2 colon it was 56.7 µM; in the assay on LOX IMVI melanoma, > 100 µM; in the assay with OVCAR-4 ovarian, > 100 µM. Besides, the TGI in the assay with SK-MEL-28 melanoma and in the assay with SW-620 colon was > 100 µM in each case.

In the case of `Cc1ccccc1NC(=O)CC(=O)NNCC(=O)Nc1nnc(-c2ccccc2)s1`, the TGI in the assay with A498 renal is > 100 µM; in the assay on HOP-18 NSCLC it was 96.2 µM; in the assay on K-562 leukemia, > 100 µM; with KM20L2 colon, > 100 µM; in the assay with LOX IMVI melanoma, > 100 µM; in the assay with OVCAR-4 ovarian it was 33.5 µM. In addition, the TGI in the assay on SK-MEL-28 melanoma and in the assay on SW-620 colon was > 100 µM throughout.

With `CC(C)(C)C1CC[C@H]2c3c([nH]c4ccccc34)[C@H]3C(=O)N(c4ccc(F)cc4)C(=O)[C@H]3[C@H]2C1` (stereo partly drawn), the TGI came to 45.7 µM in the assay with A498 renal; 34.4 µM in the assay on HOP-18 NSCLC; 42.5 µM in the assay on K-562 leukemia; 46.5 µM in the assay with KM20L2 colon; 35.2 µM in the assay with LOX IMVI melanoma; 23.7 µM with OVCAR-4 ovarian. In addition, the TGI with SK-MEL-28 melanoma was found to be 46.5 µM; in the assay with SW-620 colon it was 35.8 µM.

On to `N#CC1(CCCCl)CCCCC1`, for which the TGI in the assay on A498 renal, in the assay with HOP-18 NSCLC, with KM20L2 colon, in the assay on LOX IMVI melanoma, in the assay with SK-MEL-28 melanoma and in the assay on SW-620 colon was > 100 µM each time.

Take `O=C(/C=C(\[O-])c1ccccc1)CCCCCCC(=O)/C=C(\[O-])c1ccccc1.O=C(/C=C(\[O-])c1ccccc1)CCCCCCC(=O)/C=C(\[O-])c1ccccc1.O=C(/C=C(\[O-])c1ccccc1)CCCCCCC(=O)/C=C(\[O-])c1ccccc1.[Y+3].[Y+3]`: the GI50 in the assay with A498 renal was > 50 µM; in the assay with K-562 leukemia, 17.7 µM; in the assay with KM20L2 colon, > 50 µM; in the assay with LOX IMVI melanoma, > 50 µM; in the assay on OVCAR-4 ovarian it was 14.2 µM; in the assay on SK-MEL-28 melanoma, > 50 µM. Besides, in the assay with SW-620 colon, the GI50 is > 50 µM. In addition, the TGI in the assay with A498 renal, in the assay with K-562 leukemia, in the assay with KM20L2 colon, in the assay on LOX IMVI melanoma, in the assay on OVCAR-4 ovarian and with SK-MEL-28 melanoma was > 50 µM in each case. In the assay on SW-620 colon, the TGI is > 50 µM.

As for `O/N=C1/C(=C/c2ccc(OCc3ccccc3)cc2)CCCC1C(NO)c1ccc(OCc2ccccc2)cc1` (stereo not drawn), the TGI is > 100 µM in the assay on A498 renal; > 100 µM in the assay on HOP-18 NSCLC; > 100 µM in the assay with K-562 leukemia; > 100 µM in the assay on KM20L2 colon; 24.5 µM in the assay with LOX IMVI melanoma; 57.5 µM with OVCAR-4 ovarian. Besides, the TGI with SK-MEL-28 melanoma and with SW-620 colon was > 100 µM each time.
